Our source for the pest or weed control and plant injury values is US12077503B2, “Substituted cyclic amides and their use as herbicides” (FMC CORPORATION, priority 2015, dated 2024).

Where two headings read alike, the source gives them in different places.

What all share (assay type): in vivo
For assay [1], the system named is pigweed (Amaranthus retroflexus). Put plainly: Test A preemergence. The conditions noted are these: Amaranthus retroflexus, pre-emergence, 240 h; for pest or weed control at 125 g/ha: 125 g ai/ha, 0 to 100 scale where 0 is no effect and 100 is complete control; for pest or weed control at 500 g/ha: 500 g ai/ha.
A further assay has as its system Kochia (Kochia scoparia). Put plainly: Test A postemergence. The conditions noted are these: Bassia scoparia, post-emergence, 240 h, postemergence; for pest or weed control at 125 g/ha: 125 g ai/ha. In outline:
(§1)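 Preemergence directed soil spray on seeded pots, or postemergence application to plants 2–10 cm, one- to two-leaf. Solvent mixture non-phytotoxic, with surfactant. Scored ~10 d later, visually, 0–100 vs untreated.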

Assay [2] relates to ryegrass, Italian (Italian ryegrass, Lolium multiflorum). In words: Test A postemergence. The conditions noted are these: Lolium multiflorum, post-emergence, 240 h, postemergence; for pest or weed control at 125 g/ha: 125 g ai/ha. In outline: as §1
In another assay the test system is corn (Zea mays). Put plainly: Test A postemergence. The conditions noted are these: Zea mays, post-emergence, 240 h, postemergence; for plant injury at 125 g/ha: 125 g ai/ha. In outline: as §1
The test system of assay [3] is blackgrass (Alopecurus myosuroides). In words: Test A postemergence. The conditions noted are these: Alopecurus myosuroides, post-emergence, 240 h, postemergence; for pest or weed control at 125 g/ha: 125 g ai/ha. In outline:
as §1

Assay [4] relates to barnyardgrass (Echinochloa crus-galli). In words: Test A postemergence. The conditions noted are these: Echinochloa crus-galli, post-emergence, 240 h, postemergence; for pest or weed control at 125 g/ha: 125 g ai/ha. In short, it runs like this:
as §1

The subject of assay [5] is Galium (catchweed bedstraw, Galium aparine). Put plainly: Test A postemergence. The conditions noted are these: Galium, post-emergence, 240 h, postemergence; for pest or weed control at 125 g/ha: 125 g ai/ha. In short, it runs like this: as §1
Assay [6] concerns ragweed (common ragweed, Ambrosia elatior). Put plainly: Test A postemergence. The conditions noted are these: Ambrosia artemisiifolia, post-emergence, 240 h, postemergence; for pest or weed control at 125 g/ha: 125 g ai/ha. In outline:
as §1

The subject of assay [7] is pigweed (Amaranthus retroflexus). Put plainly: Test A postemergence. The conditions noted are these: Amaranthus retroflexus, post-emergence, 240 h, postemergence; for pest or weed control at 125 g/ha: 125 g ai/ha. In outline: as §1
Assay [8] relates to wheat (Triticum aestivum). Put plainly: Test A postemergence. The conditions noted are these: Triticum aestivum, post-emergence, 240 h, postemergence; for plant injury at 125 g/ha: 125 g ai/ha. In short, it runs like this:
as §1

For assay [9], the system named is giant foxtail (Setaria faberii). In words: Test A postemergence. The conditions noted are these: Setaria faberi, post-emergence, 240 h, postemergence; for pest or weed control at 125 g/ha: 125 g ai/ha. In outline: as §1
For assay [10], the system named is ducksalad (Heteranthera limosa). In words: Test B flooded paddy test. The conditions noted are these: Heteranthera limosa, 250 g ai/ha, Flood, read-out: Ducksalad plant response rating. In outline:
(§2)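 Plants at 2-leaf stage flooded to 3 cm above soil, with compounds applied directly to paddy water and that depth maintained. Plants kept in greenhouse 13–15 d. Visual rating versus controls on a 0 (no effect) to 100 (complete control) scale.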

The test system of the next assay is rice (Oryra sativa). Put plainly: Test B flooded paddy test. The conditions noted are these: Oryza sativa, 250 g ai/ha, Flood, read-out: Rice plant response rating. In outline:
as §2

The subject of assay [11] is sedge, umbrella (small-flower umbrella sedge, Cyperus difformis). In words: Test B flooded paddy test. The conditions noted are these: Cyperus difformis, 250 g ai/ha, Flood, read-out: Sedge, Umbrella plant response rating. In outline:
as §2

Assay [12] relates to barnyardgrass (Echinochloa crus-galli). Put plainly: Test B flooded paddy test. The conditions noted are these: Echinochloa crus-galli, 250 g ai/ha, Flood, read-out: Barnyardgrass plant response rating. In outline:
as §2

Setting [13] is: 0 to 100 scale where 0 is no effect and 100 is complete control.
The mark [14] stands for this setting: scale of 0 to 100 where 0 is no effect and 100 is complete control.

Take `CC(C)=CC1CNC(=O)C1C(=O)Nc1ccccc1S(C)(=O)=O` (stereo not drawn) [Compound 1057]: the pest or weed control at 125 g/ha in [1] (preemergence, approx. 10 d, read-out: Pigweed plant response rating) is 0%; in the assay with Kochia (Kochia scoparia) (visual injury on 0 to 100 scale (0 no effect, 100 complete control), approx. 10 d, read-out: Kochia plant response rating) it was 0%; in assay [2] (visual injury on 0 to 100 scale (0 no effect, 100 complete control), approx. 10 d, read-out: Ryegrass, Italian plant response rating), 0%; in assay [3] (visual injury on 0 to 100 scale (0 no effect, 100 complete control), approx. 10 d, read-out: Blackgrass plant response rating), 0%; in [4] (visual injury on 0 to 100 scale (0 no effect, 100 complete control), approx. 10 d, read-out: Barnyardgrass plant response rating), 0%; in assay [5] (visual injury on 0 to 100 scale (0 no effect, 100 complete control), approx. 10 d, read-out: Galium plant response rating), 0%. Also, the pest or weed control at 125 g/ha is 0% in assay [6] (visual injury on 0 to 100 scale (0 no effect, 100 complete control), approx. 10 d, read-out: Ragweed plant response rating); 0% in assay [7] (visual injury on 0 to 100 scale (0 no effect, 100 complete control), approx. 10 d, read-out: Pigweed plant response rating); 0% in assay [9] (visual injury on 0 to 100 scale (0 no effect, 100 complete control), approx. 10 d, read-out: Foxtail, Giant plant response rating). Moreover, the pest or weed control at 500 g/ha in [1] (preemergence, visual injury rating about 10 d after treatment, 0 to 100 scale (0 no effect, 100 complete control), read-out: Pigweed plant response rating) is 0%; in the assay on Kochia (Kochia scoparia) (500 g ai/ha, 0 to 100 scale, 0 is no effect, 100 is complete control, read-out: Kochia plant response rating), 0%; in [2] (500 g ai/ha, 0 to 100 scale, 0 is no effect, 100 is complete control, read-out: Ryegrass, Italian plant response rating), 0%; in assay [3] (500 g ai/ha, 0 to 100 scale, 0 is no effect, 100 is complete control, read-out: Blackgrass plant response rating) it was 0%; in [4] (500 g ai/ha, 0 to 100 scale, 0 is no effect, 100 is complete control, read-out: Barnyardgrass plant response rating), 0%; in [5] (500 g ai/ha, 0 to 100 scale, 0 is no effect, 100 is complete control, read-out: Galium plant response rating), 0%. In addition, the pest or weed control at 500 g/ha in [6] (500 g ai/ha, 0 to 100 scale, 0 is no effect, 100 is complete control, read-out: Ragweed plant response rating) is 0%; in assay [7] (500 g ai/ha, 0 to 100 scale, 0 is no effect, 100 is complete control, read-out: Pigweed plant response rating) it was 0%; in [9] (500 g ai/ha, 0 to 100 scale, 0 is no effect, 100 is complete control, read-out: Foxtail, Giant plant response rating), 0%. The plant injury at 125 g/ha in the assay on corn (Zea mays) (visual injury on 0 to 100 scale (0 no effect, 100 complete control), approx. 10 d, read-out: Corn plant response rating) stood at 0%; in assay [8] (visual injury on 0 to 100 scale (0 no effect, 100 complete control), approx. 10 d, read-out: Wheat plant response rating), 0%. Further, the plant injury at 500 g/ha in the assay on corn (Zea mays) (500 g ai/ha, 0 to 100 scale, 0 is no effect, 100 is complete control, read-out: Corn plant response rating) is 0%; in assay [8] (500 g ai/ha, 0 to 100 scale, 0 is no effect, 100 is complete control, read-out: Wheat plant response rating), 0%. The pest or weed control at 250 g/ha came to 85% in [10] (setting [13]), 0% in the assay on rice (Oryra sativa) (setting [13]), 0% in assay [11] (setting [13]) and 30% in assay [12] (setting [13]).

Consider `COc1c(F)ccc([C@H]2CNC(=O)[C@@H]2C(=O)Nc2cccc(F)c2F)c1Cl` [Compound 882], for which the pest or weed control at 125 g/ha in [1] (preemergence, read-out: Pigweed plant response rating) was found to be 20%; with Kochia (Kochia scoparia) (visual injury rating after approximately 10 d, read-out: Kochia plant response rating (0 to 100 scale, 0 no effect, 100 complete control)) it was 60%; in assay [2] (visual injury rating after approximately 10 d, read-out: Ryegrass, Italian plant response rating (0 to 100 scale, 0 no effect, 100 complete control)), 40%; in assay [3] (visual injury rating after approximately 10 d, read-out: Blackgrass plant response rating (0 to 100 scale, 0 no effect, 100 complete control)) it was 40%; in [4] (visual injury rating after approximately 10 d, read-out: Barnyardgrass plant response rating (0 to 100 scale, 0 no effect, 100 complete control)), 80%; in [5] (visual injury rating after approximately 10 d, read-out: Galium plant response rating (0 to 100 scale, 0 no effect, 100 complete control)), 50%. The pest or weed control at 125 g/ha in assay [6] (visual injury rating after approximately 10 d, read-out: Ragweed plant response rating (0 to 100 scale, 0 no effect, 100 complete control)) stood at 0%; in [7] (visual injury rating after approximately 10 d, read-out: Pigweed plant response rating (0 to 100 scale, 0 no effect, 100 complete control)), 30%; in [9] (visual injury rating after approximately 10 d, read-out: Foxtail, Giant plant response rating (0 to 100 scale, 0 no effect, 100 complete control)) it was 70%. In assay [1] (Preemergence, visual injury vs untreated controls after approximately 10 d, read-out: Pigweed plant response rating (0 to 100 scale where 0 is no effect and 100 is complete control)), the pest or weed control at 500 g/ha stood at 20%. For the same compound, the plant injury at 125 g/ha with corn (Zea mays) (visual injury rating after approximately 10 d, read-out: Corn plant response rating (0 to 100 scale, 0 no effect, 100 complete control)) came out at 80%; in assay [8] (visual injury rating after approximately 10 d, read-out: Wheat plant response rating (0 to 100 scale, 0 no effect, 100 complete control)) it was 0%. For the same compound, the pest or weed control at 250 g/ha in assay [10] (setting [14]) came out at 100%; with rice (Oryra sativa) (setting [14]) it was 0%; in [11] (setting [14]), 0%; in [12] (setting [14]) it was 45%.
